Reference: patent publication US10421778B2, “Isoform-selective lysine deacetylase inhibitors” (WASHINGTON UNIVERSITY, priority 2015, dated 2019)
Positions of bridges follow the written chain, without caps; N, C: chain ends. Non-standard residues stand in square brackets, D forms with d. Residues, ends and D or L forms follow the SMILES beside them. *: point of attachment. GABA = NCCCC(=O)O; NHOH = ON*

Columns and labels:
Assay in all cases: KDAC inhibition assay, Caliper EZ Reader II
Type in all cases: biochemical
recombinant human KDAC6 = biological target: T1, recombinant human KDAC6 (Homo sapiens, UniProt Q9UBN7); details: for KDAC Inhibition Activity KDAC6 (% inhibition): % inhibition at 30 μM
T1 construct: purchased BPS Bioscience
T1 sequence (Q9UBN7 1-1215): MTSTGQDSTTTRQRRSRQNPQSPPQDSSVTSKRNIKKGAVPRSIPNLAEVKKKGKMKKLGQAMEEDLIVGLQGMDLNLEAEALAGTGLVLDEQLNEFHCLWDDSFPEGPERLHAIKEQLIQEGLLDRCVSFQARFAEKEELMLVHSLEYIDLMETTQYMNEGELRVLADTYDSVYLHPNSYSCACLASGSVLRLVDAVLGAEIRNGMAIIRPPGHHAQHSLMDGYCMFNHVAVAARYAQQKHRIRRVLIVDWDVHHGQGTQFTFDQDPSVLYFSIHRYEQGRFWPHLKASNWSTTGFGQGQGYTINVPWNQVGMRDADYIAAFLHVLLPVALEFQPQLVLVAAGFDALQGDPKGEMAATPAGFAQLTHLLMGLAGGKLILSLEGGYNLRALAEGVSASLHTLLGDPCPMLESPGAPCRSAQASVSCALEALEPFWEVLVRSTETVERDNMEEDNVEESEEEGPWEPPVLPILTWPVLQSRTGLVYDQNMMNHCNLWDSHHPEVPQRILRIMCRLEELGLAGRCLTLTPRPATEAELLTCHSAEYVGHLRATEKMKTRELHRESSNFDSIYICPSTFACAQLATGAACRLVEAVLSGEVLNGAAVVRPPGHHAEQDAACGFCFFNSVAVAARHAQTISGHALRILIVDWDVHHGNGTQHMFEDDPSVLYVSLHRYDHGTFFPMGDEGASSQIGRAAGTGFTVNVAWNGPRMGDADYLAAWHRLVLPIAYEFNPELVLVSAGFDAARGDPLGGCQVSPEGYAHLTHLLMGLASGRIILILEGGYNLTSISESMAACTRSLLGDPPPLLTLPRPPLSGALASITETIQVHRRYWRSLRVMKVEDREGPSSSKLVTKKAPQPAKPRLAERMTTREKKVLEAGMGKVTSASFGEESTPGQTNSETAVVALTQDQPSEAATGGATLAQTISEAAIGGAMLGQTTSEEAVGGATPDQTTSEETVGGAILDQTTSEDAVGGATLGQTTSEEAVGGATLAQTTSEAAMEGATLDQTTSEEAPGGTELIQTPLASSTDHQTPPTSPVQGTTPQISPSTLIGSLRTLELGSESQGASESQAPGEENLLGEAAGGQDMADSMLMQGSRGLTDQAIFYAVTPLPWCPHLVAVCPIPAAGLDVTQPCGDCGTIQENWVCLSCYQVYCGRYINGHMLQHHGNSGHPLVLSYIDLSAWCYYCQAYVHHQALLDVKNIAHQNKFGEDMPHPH

recombinant human KDAC1 = biological target: T2, recombinant human KDAC1 (Homo sapiens, UniProt Q13547); details: for KDAC Inhibition Activity KDAC1 (% inhibition): % inhibition at 30 μM; for IC50: 10-point dose curve from 30 μM
T2 construct: purchased BPS Bioscience

recombinant human KDAC3 = biological target: T3, recombinant human KDAC3 (Homo sapiens, UniProt O15379); details: for KDAC Inhibition Activity KDAC3 (% inhibition): % inhibition at 30 μM; for IC50: 10-point dose curve from 30 μM, read-out: KDAC Inhibition Activity (IC50) KDAC3
T3 construct: purchased BPS Bioscience

recombinant human KDAC8 = biological target: T4, recombinant human KDAC8 (Homo sapiens, UniProt Q9BY41); details: for KDAC Inhibition Activity KDAC8 (% inhibition): % inhibition at 30 μM
T4 construct: purchased BPS Bioscience
T4 sequence (Q9BY41 1-377): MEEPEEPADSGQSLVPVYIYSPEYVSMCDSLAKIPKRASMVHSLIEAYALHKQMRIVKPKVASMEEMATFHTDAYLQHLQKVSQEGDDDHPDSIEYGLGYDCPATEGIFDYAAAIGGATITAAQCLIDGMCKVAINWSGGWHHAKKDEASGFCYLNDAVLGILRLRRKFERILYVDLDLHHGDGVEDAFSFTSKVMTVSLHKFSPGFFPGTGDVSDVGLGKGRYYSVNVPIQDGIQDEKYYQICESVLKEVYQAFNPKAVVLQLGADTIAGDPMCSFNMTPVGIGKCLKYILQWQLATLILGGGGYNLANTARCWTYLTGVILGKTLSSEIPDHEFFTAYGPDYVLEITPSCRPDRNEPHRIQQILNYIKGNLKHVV

T3 sequence (O15379 whole entry): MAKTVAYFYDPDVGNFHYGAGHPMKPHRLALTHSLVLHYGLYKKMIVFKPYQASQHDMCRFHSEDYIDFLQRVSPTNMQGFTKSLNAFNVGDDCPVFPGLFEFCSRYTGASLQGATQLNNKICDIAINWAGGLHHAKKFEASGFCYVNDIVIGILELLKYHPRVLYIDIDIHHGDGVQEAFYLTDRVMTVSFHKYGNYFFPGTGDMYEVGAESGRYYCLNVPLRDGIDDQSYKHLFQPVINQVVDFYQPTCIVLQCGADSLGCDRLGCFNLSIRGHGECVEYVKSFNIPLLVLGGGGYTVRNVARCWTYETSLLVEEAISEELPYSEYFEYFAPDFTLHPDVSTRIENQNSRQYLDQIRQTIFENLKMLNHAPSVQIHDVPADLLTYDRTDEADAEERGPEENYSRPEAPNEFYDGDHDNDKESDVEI
T3 sequence (Q9Y618 395-489 partner limits assumed): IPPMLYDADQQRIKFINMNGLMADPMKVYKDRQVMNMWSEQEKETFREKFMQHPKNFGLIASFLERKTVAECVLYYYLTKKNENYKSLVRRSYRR
T2 sequence (Q13547 whole entry): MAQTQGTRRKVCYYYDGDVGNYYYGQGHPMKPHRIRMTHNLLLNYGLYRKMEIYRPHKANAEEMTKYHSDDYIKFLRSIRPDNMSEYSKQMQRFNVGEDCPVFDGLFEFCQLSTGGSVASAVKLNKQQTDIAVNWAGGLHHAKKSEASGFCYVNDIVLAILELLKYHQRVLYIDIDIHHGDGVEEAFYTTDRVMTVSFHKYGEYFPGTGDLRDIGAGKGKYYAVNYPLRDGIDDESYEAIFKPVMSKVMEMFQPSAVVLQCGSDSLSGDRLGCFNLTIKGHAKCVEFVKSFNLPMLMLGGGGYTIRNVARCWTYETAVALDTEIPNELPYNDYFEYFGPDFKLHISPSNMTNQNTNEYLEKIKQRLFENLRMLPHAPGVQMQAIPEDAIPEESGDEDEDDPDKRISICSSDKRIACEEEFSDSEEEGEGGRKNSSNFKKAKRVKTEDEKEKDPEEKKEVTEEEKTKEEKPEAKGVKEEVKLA

Compound | KDAC Inhibition Activity KDAC6 (% inhibition) (recombinant human KDAC6) | KDAC Inhibition Activity KDAC1 (% inhibition) (recombinant human KDAC1) | KDAC Inhibition Activity KDAC3 (% inhibition) (recombinant human KDAC3) | KDAC Inhibition Activity KDAC8 (% inhibition) (recombinant human KDAC8) | also measured
Cyclo-^DAsp(Pro-^DPro-Val)-NHCH2CH2S—SCH2CH2NH2 [Compound 26b] | 13% | Not active | Not active | 4% | 
CC(C)[C@@H]1NC(=O)[C@H]2CCCN2C(=O)[C@@H]2CCCN2C(=O)C[C@@H](C(=O)NCCCC(=O)NO)NC1=O [Compound 25a, Cyclo-Asp(Pro-^DPro-Val)-NHCH2CH2CH2CONHOH] (P[dP]VD[GABA]-{NHOH}; lactam N-4) |  |  |  |  | inhibition at 30 µM (recombinant human KDAC6): 80%; inhibition at 30 µM (recombinant human KDAC1): 25%; IC50 (recombinant human KDAC1): > 30 µM; inhibition at 30 µM (recombinant human KDAC3): 45%; IC50 (recombinant human KDAC3): > 30 µM; inhibition at 30 µM (recombinant human KDAC8): 34%; IC50 (recombinant human KDAC8; 10-point dose curve from 30 μM): > 30 µM
Cyclo-Asp(^DPro-Pro-Val)-OBn [Compound 1a] | 6% |  |  | 9% | 
[Cyclo-Asp(^DPro-Pro-Val)-NHCH2CH2CH2S]2 [Compound 37a] | 9% |  |  | 6% | 
Cyclo-Asp(Pro-^DPro-Val)-NHCH2CH2CH2SH [Compound 18a] | 19% | Not active | 1% | 4% | 
Cyclo-^DAsp(Pro-^DPro-Val)-NHCH2CH2SH [Compound 17b] | 18% | Not active | Not active | Not active | 
Cyclo-Asp(Pro-^DPro-Val)-NHCH2CH2CH2COOMe [Compound 23a] | Not active | Not active | 7% | Not active | 
Cyclo-^DAsp(^DPro-Pro-Val)-NHCH2CH2S—SCH2CH2NH2 [Compound 15b] | 7% | 5% | 7% | Not active | 
Cyclo-Asp(Pro-^DPro-Val)-NHCH2CH2CH2S(═O)CH3 [Compound 20a] | Not active | Not active | Not active | 19% | 
Cyclo-^DAsp(Pro-^DPro-Val)-OBn [Compound 2b] | 10% | 1.5% | 1% |  | 
Cyclo-Asp(Pro-^DPro-Val)-NHCH2CH2CH2COOH [Compound 24a] | Not active | 4% | 8% | 36% | 
Cyclo-^DAsp(Pro-^DPro-Val)-NHCH2CH2CH2OH [Compound 22b] | Not active | Not active | 5% | 12% | 
[Cyclo-Asp(^DPro-Pro-Val)-NHCH2CH2S]2 [Compound 35a] |  |  | 2% |  | 
Cyclo-Asp(Pro-^DPro-Val)-NHCH2CH2CH2SCH3 [Compound 19a] | Not active | 2% | Not active | 25% | 
Cyclo-Asp(^DPro-Pro-Val)-NHCH2CH2CH2SH [Compound 6a] | 15-36% 26% average | 8% | 17-31% 24% average | 6% | 
Cyclo-^DAsp(Pro-^DPro-Val)-NHCH2CH2CH2COOH [Compound 24b] | Not active | Not active | 9% | 38% | 

Compound | KDAC Inhibition Activity KDAC6 (% inhibition) (recombinant human KDAC6) | KDAC Inhibition Activity KDAC1 (% inhibition) (recombinant human KDAC1) | KDAC Inhibition Activity KDAC3 (% inhibition) (recombinant human KDAC3) | KDAC Inhibition Activity KDAC8 (% inhibition) (recombinant human KDAC8) | also measured
Cyclo-Asp(Pro-^DPro-Val)-NHCH2CH2CH2S(═O)2CH3 [Compound 21a] | Not active | Not active | Not active | 23% | 
Cyclo-^DAsp(Pro-^DPro-Val)-NHCH2CH2CH2SH [Compound 18b] | 48% | 9.5% | 15% | Not active | 
CC(C)[C@@H]1NC(=O)[C@@H]2CCCN2C(=O)[C@H]2CCCN2C(=O)C[C@@H](C(=O)O)NC1=O [Compound 3a, Cyclo-Asp(^DPro-Pro-Val)-OH] ([dP]PVD-OH; lactam N-4) |  |  |  |  | inhibition at 30 µM (recombinant human KDAC3): 1%
Cyclo-Asp(^DPro-Pro-Val)-NHCH2CH2CH2S(═O)2CH3 [Compound 9a] | Not active | Not active | 4% | 17% | 
Cyclo-Asp(Pro-^DPro-Val)-NHCH2CH2S—SCH2CH2NH2 [Compound 26a] | 10% | 15% | 5% | 10% | 
Nc1ccccc1NC(=O)c1ccc(-c2cn(CCc3ccsc3)nn2)cc1 [Compound T247, N-(2-Aminophenyl)-4-[1-(2-thiophen-3-ylethyl)-1H-[1,2,3]triazol-4-yl]benzamide, reference compound] |  |  |  |  | IC50 (recombinant human KDAC1): 1.11 µM; IC50 (recombinant human KDAC3): 3.94 µM
[Cyclo-DAsp(Pro-DPro-Val)-NHCH2CH2S]2 [Compound 36b] | 4% |  |  | 2% | 
[Cyclo-^DAsp(^DPro-Pro-Val)-NHCH2CH2CH2S]2 [Compound 37b] | 8% | 1% | 53% |  | 
[Cyclo-^DAsp(Pro-^DPro-Val)-NHCH2CH2CH2S]2 [Compound 38b] | 40% |  | 19% | 3% | 
Cyclo-Asp(Pro-^DPro-Val)-OBn [Compound 2a] |  |  |  | 14% | 
[Cyclo-^DAsp(^DPro-Pro-Val)-NHCH2CH2S]2 [Compound 35b] | 6% |  |  | 9% | 
Cyclo-DAsp(Pro-DPro-Val)-OH [Compound 4b] | 10% |  | 5% | 4% | 
Cyclo-Asp(Pro-^DPro-Val)-OH [Compound 4a] |  |  | 24% |  | 
[Cyclo-Asp(Pro-^DPro-Val)-NHCH2CH2CH2S]2 [Compound 38a] | 21% |  | 10% |  | 
[Cyclo-Asp(Pro-^DPro-Val)-NHCH2CH2S]2 [Compound 36a] |  |  |  | 2% | 
CC(C)[C@@H]1NC(=O)[C@@H]2CCCN2C(=O)[C@H]2CCCN2C(=O)C[C@H](C(=O)O)NC1=O [Compound 3b, Cyclo-^DAsp(^DPro-Pro-Val)-OH] ([dP]PV[dD]-OH; lactam N-4) |  |  |  |  | inhibition at 30 µM (recombinant human KDAC1): 2.5%; inhibition at 30 µM (recombinant human KDAC3): 3%
